One series has as its system PC9. Kind of series: cell count fold change with erlotinib, miRNA mimic vs non-targeting control (log2 ratio); higher = more drug-tolerant survivors than NTC. The settings on record: erlotinib 1 µM; 72 h drug + 72 h drug-free recovery; perturbation: miRNA mimic.
Series [1] relates to EVSA-T. Kind of series: % viability in DMSO, miRNA mimic relative to NTC in DMSO; higher = less cytotoxic. The settings on record: drug used in drug arm: GDC-0980 2.5 uM; treatment: DMSO. How it is done:
(§1)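 26 miRNA mimics were transfected into 8 cancer cell lines in triplicate. 48 h post-transfection, cells were treated 72 h with DMSO or a line-specific drug, then recovered 72 h drug-free. Drugs: COLO-205 AZ628 1 uM, MKN-45 crizotinib 1 uM, NCI-H596 paclitaxel 6 uM, EVSA-T GDC-0980 2.5 uM, M14 AZ628 1 uM, HCC-1954 GDC-0980 2.5 uM, NCI-H441 carboplatin 2.5 uM, SKBr3 lapatinib 1 uM. Surviving cells are expressed as % of NTC-transfected cells in DMSO (the NTC drug arm itself is about 30-50%), mean +- SEM.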

Series [2] has as its system M14. Described as above. Particulars: drug used in drug arm: AZ628 1 uM; treatment: DMSO. On the procedure:
as §1

The test system of series [3] is NCI-H596. The description is as above. The settings on record: drug used in drug arm: paclitaxel 6 uM; treatment: DMSO. How it is done:
as §1

For series [4], the system named is SK-BR-3. The description is as above. The settings on record: drug used in drug arm: lapatinib 1 uM; treatment: DMSO. On the procedure:
as §1

In series [5] the test system is NCI-H441. The description is as above. The settings on record: drug used in drug arm: carboplatin 2.5 uM; treatment: DMSO. On the procedure: as §1
Series [6] has as its system MKN-45. The description is as above. The settings on record: drug used in drug arm: crizotinib 1 uM; treatment: DMSO. How it is done:
as §1

In series [7] the test system is COLO-205. The description is as above. The settings on record: drug used in drug arm: AZ628 1 uM; treatment: DMSO. On the procedure:
as §1

In series [8] the test system is HCC-1954. The series is described as above. The settings on record: drug used in drug arm: GDC-0980 2.5 uM; treatment: DMSO. How it is done: as §1
Series [9] deals with EVSA-T. Kind of series: % viability under drug (72 h drug + 72 h recovery), miRNA mimic relative to NTC in DMSO; higher = more surviving cells. Particulars: drug used in drug arm: GDC-0980 2.5 uM; treatment: drug. On the procedure: as §1
Series [10] has as its system M14. The description is as above. The settings on record: drug used in drug arm: AZ628 1 uM; treatment: drug. On the procedure: as §1
The subject of series [11] is NCI-H596. The description is as above. Particulars: drug used in drug arm: paclitaxel 6 uM; treatment: drug. On the procedure:
as §1

For series [12], the system named is SK-BR-3. The description is as above. The settings on record: drug used in drug arm: lapatinib 1 uM; treatment: drug. How it is done:
as §1

In series [13] the test system is NCI-H441. The series is described as above. Particulars: drug used in drug arm: carboplatin 2.5 uM; treatment: drug. On the procedure:
as §1

In series [14] the test system is MKN-45. The description is as above. The settings on record: drug used in drug arm: crizotinib 1 uM; treatment: drug. How it is done: as §1
Series [15] relates to COLO-205. The description is as above. The settings on record: drug used in drug arm: AZ628 1 uM; treatment: drug. How it is done: as §1
Series [16] has as its system HCC-1954. The series is described as above. Particulars: drug used in drug arm: GDC-0980 2.5 uM; treatment: drug. How it is done:
as §1

± gives the uncertainty stated by the source.

The source of these data is the supplement of paper PMC4976141.

Consider AAAAGUACUUGCGGAUUUUGCU, for which the “cell count fold change with erlotinib” value in the series on PC9 is -3.1. The “% viability in DMSO” value with EVSA-T [1] turned out to be 64.63 ± 0.49%; with M14 [2], 99.3 ± 19%; with NCI-H596 [3], 89.1 ± 8.1%; in the series on SK-BR-3 [4] it was 161 ± 7.2%; in the series on NCI-H441 [5] it was 67.7 ± 7.8%; with MKN-45 [6], 142 ± 17%. Moreover, the figures for the “% viability in DMSO” value in the series on COLO-205 [7] and in the series on HCC-1954 [8] were 101 ± 4.5% and 100 ± 4.8%, respectively. For the same sequence, the “% viability under drug” value in the series on EVSA-T [9] was 1.66 ± 0.013%; in the series on M14 [10], 22.8 ± 0.71%; with NCI-H596 [11], 2.53 ± 0.066%; in the series with SK-BR-3 [12], 49.8 ± 2.7%; with NCI-H441 [13], 11.3 ± 2.9%; in the series on MKN-45 [14], 4.2 ± 0.41%. Further, the figures for the “% viability under drug” value in the series on COLO-205 [15] and in the series on HCC-1954 [16] were 49.9 ± 1.1% and 4.02 ± 0.49%, respectively.

AAAAGUAAUUGCGGAUUUUGCC: the “cell count fold change with erlotinib” value in the series with PC9 came out at 0.467. The “% viability in DMSO” value with EVSA-T [1] came to 85.7 ± 0.94%; in the series with M14 [2], 119 ± 24%; in the series with NCI-H596 [3], 95.4 ± 3.6%; in the series on SK-BR-3 [4] it was 73.43 ± 0.24%; in the series with NCI-H441 [5], 182 ± 14%; in the series on MKN-45 [6], 136 ± 19%. Also, the “% viability in DMSO” value worked out at 101 ± 4.2% in the series on COLO-205 [7] and 117 ± 9.9% with HCC-1954 [8]. Also, the “% viability under drug” value worked out at 0.608 ± 0.1% in the series on EVSA-T [9]; 18 ± 0.42% with M14 [10]; 1.3 ± 0.04% in the series with NCI-H596 [11]; 45.73 ± 0.37% with SK-BR-3 [12]; 29.7 ± 2.4% with NCI-H441 [13]; 4.35 ± 0.71% in the series on MKN-45 [14]. In addition, the “% viability under drug” value with COLO-205 [15] was 42.6 ± 1%; with HCC-1954 [16], 3.99 ± 0.13%.

Take AAAAGUAAUUGUGGUUUUUGCC: the “cell count fold change with erlotinib” value in the series with PC9 was found to be 0.561. Further, the “% viability in DMSO” value came out at 71.9 ± 2.7% in the series with EVSA-T [1]; 85.4 ± 3.8% in the series on M14 [2]; 98.8 ± 8.3% in the series on NCI-H596 [3]; 80.3 ± 4.8% with SK-BR-3 [4]; 106 ± 7.8% in the series with NCI-H441 [5]; 156 ± 2.2% in the series on MKN-45 [6]. Besides, the “% viability in DMSO” value was found to be 95 ± 6.9% in the series on COLO-205 [7] and 110 ± 9.3% in the series with HCC-1954 [8]. Further, the “% viability under drug” value in the series with EVSA-T [9] worked out at 0.3585 ± 0.0025%; in the series on M14 [10], 21.9 ± 1.3%; in the series on NCI-H596 [11], 0.738 ± 0.0075%; in the series on SK-BR-3 [12], 39.2 ± 11%; with NCI-H441 [13], 24.2 ± 3.6%; with MKN-45 [14], 4.45 ± 0.12%. For the same sequence, the “% viability under drug” value in the series with COLO-205 [15] came to 46.4 ± 1.6%; in the series with HCC-1954 [16], 2.67 ± 0.17%.

Consider GAAUGUUGCUCGGUGAACCCCU, for which the “cell count fold change with erlotinib” value with PC9 is -3.27. For the same sequence, the “% viability in DMSO” value in the series on EVSA-T [1] came out at 0.953 ± 0.055%; in the series on M14 [2], 17.3 ± 2.9%; with NCI-H596 [3] it was 7.07 ± 2.1%; in the series on SK-BR-3 [4], 12.4 ± 5.7%; in the series with NCI-H441 [5], 7.26 ± 0.039%; in the series on MKN-45 [6], 8.61 ± 2.6%. The “% viability in DMSO” value with COLO-205 [7] was 102 ± 1.1%; with HCC-1954 [8], 10.8 ± 1.4%. Moreover, the “% viability under drug” value was 0.08 ± 0.004% in the series with EVSA-T [9]; 3.18 ± 0.17% in the series on M14 [10]; 0.932 ± 0.015% in the series on NCI-H596 [11]; 10.1 ± 0.42% with SK-BR-3 [12]; 4.29 ± 0.14% with NCI-H441 [13]; 0.355 ± 0.046% in the series with MKN-45 [14]. Moreover, the “% viability under drug” value is 36.6 ± 1.2% with COLO-205 [15] and 0.831 ± 0.092% with HCC-1954 [16].

For GAGCCAGUUGGACAGGAGC, the “cell count fold change with erlotinib” value in the series on PC9 was -4.82. The “% viability in DMSO” value in the series on EVSA-T [1] amounted to 28.9 ± 1%; with M14 [2], 97.9 ± 14%; with NCI-H596 [3], 66.947 ± 0.021%; in the series on SK-BR-3 [4], 178 ± 130%; with NCI-H441 [5] it was 60.7 ± 17%; in the series with MKN-45 [6] it was 70.7 ± 8%. In addition, the “% viability in DMSO” value in the series with COLO-205 [7] was determined as 101 ± 6.3%; in the series with HCC-1954 [8], 34 ± 6.2%. Besides, the “% viability under drug” value was 0.0905 ± 0.0095% with EVSA-T [9]; 6.67 ± 1.9% in the series with M14 [10]; 0.418 ± 0.032% with NCI-H596 [11]; 48.1 ± 28% in the series on SK-BR-3 [12]; 18.1 ± 1.8% with NCI-H441 [13]; 1.7 ± 0.21% in the series on MKN-45 [14]. For the same sequence, the figures for the “% viability under drug” value in the series with COLO-205 [15] and in the series with HCC-1954 [16] were 38.9 ± 1% and 0.433 ± 0.085%, respectively.

On to AAGUGCCGCCAUCUUUUGAGUGU, for which the “cell count fold change with erlotinib” value with PC9 is -4.45. The “% viability in DMSO” value in the series with EVSA-T [1] was found to be 12.3 ± 1.3%; in the series on M14 [2] it was 15.7 ± 1.4%; with NCI-H596 [3] it was 37.5 ± 5.6%; in the series on SK-BR-3 [4] it was 22.2 ± 6.5%; with NCI-H441 [5] it was 13.71 ± 0.039%; in the series with MKN-45 [6], 35.27 ± 0.22%. The results for the “% viability in DMSO” value in the series with COLO-205 [7] and in the series with HCC-1954 [8] were 100.8 ± 0.28% and 11.8 ± 0.37%, respectively. Further, the “% viability under drug” value in the series with EVSA-T [9] was found to be 0.157%; in the series on M14 [10] it was 1.98 ± 0.13%; in the series on NCI-H596 [11], 0.265 ± 0.011%; with SK-BR-3 [12], 8.32 ± 0.77%; with NCI-H441 [13], 7.71 ± 2.4%; in the series on MKN-45 [14], 0.444 ± 0.042%. Moreover, the “% viability under drug” value in the series on COLO-205 [15] turned out to be 30.8 ± 0.9%; in the series with HCC-1954 [16], 0.919 ± 0.19%.

Regarding CAAUGUUUCCACAGUGCAUCAC, the “cell count fold change with erlotinib” value with PC9 is -2.66. The “% viability in DMSO” value with EVSA-T [1] worked out at 2.27 ± 1.2%; in the series with M14 [2], 42.7 ± 9%; with NCI-H596 [3], 15.2 ± 1.5%; with SK-BR-3 [4] it was 16.8 ± 1.4%; in the series on NCI-H441 [5], 2.78 ± 0.14%; in the series with MKN-45 [6], 2.31 ± 0.74%. The “% viability in DMSO” value in the series with COLO-205 [7] worked out at 98.6 ± 2%; with HCC-1954 [8] it was 7.62 ± 0.18%. Also, the “% viability under drug” value with EVSA-T [9] turned out to be 0.155 ± 0.049%; in the series on M14 [10] it was 5.66 ± 1.1%; in the series with NCI-H596 [11], 0.731 ± 0.068%; with SK-BR-3 [12] it was 9.29 ± 0.1%; in the series with NCI-H441 [13], 4.19 ± 0.47%; in the series with MKN-45 [14] it was 0.794 ± 0.25%. Moreover, the “% viability under drug” value in the series on COLO-205 [15] came out at 29.2 ± 4.1%; with HCC-1954 [16] it was 1.26 ± 0.032%.
